*: point of attachment. C14 diacid = O=C(O)CCCCCCCCCCCCC(=O)*; Lauroyl = CCCCCCCCCCCC(=O)*
Assays:
Chymotrypsin = assay: Inhibition of enzymatic degradation of a model GLP-1 (FRET substrate) by chymotrypsin; format: biochemical; conditions: for EC50: read-out: EC50 Chymotrypsin (0.001 mg/ml), 0.001 mg/ml chymotrypsin, 37° C., ± standard error if at least 3 measurements
In short: (§1)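 Initial-rate slopes of fluorescence rise (320 nm ex, 405 nm em), fitted over the linear early phase and averaged from duplicates, were plotted against inhibitor concentration and fitted logistically to give EC50. Reactions ran at 37° C in Dulbecco's PBS, with MCA/DNP GLP-1 FRET substrate added as 10 μl of 100 μM stock.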

Trypsin = assay: Inhibition of enzymatic degradation of a model GLP-1 (FRET substrate) by trypsin; format: biochemical; conditions: for EC50: read-out: EC50 Trypsin (0.001 mg/ml), 0.001 mg/ml trypsin, 37° C.
In short: as §1

[1] = Hydrophobicity: retention time during reverse phase HPLC; format: physicochemical; conditions: Acquity CSH C18; pH 7.2 buffer/CH3CN gradient; 40° C.
Source text: The retention time (RT) during reverse phase HPLC was taken as a measure of hydrophobicity of an N-terminally modified peptide or oligopeptide of the invention, where the connection is: The longer the RT, the more hydrophobic N-terminally modified peptide or oligopeptide. The following running conditions were applied during HPLC analysis:
Buffer B: 70% (v/v) aq. CH3CN

[2] = compound 0.1 mM, buffer containing 8% DMSO

Substance | Slope of the initial increase in fluorescence obtained during incubation with 0.001 mg/ml Chymotrypsin (Chymotrypsin; [2]) | Slope of the initial increase in fluorescence obtained during incubation with 0.001 mg/ml Trypsin (Trypsin; [2]) | RT (retention time during reverse phase HPLC as a measure of hydrophobicity) [1] [min] | Slope of the initial increase in fluorescence obtained during incubation with 0.001 mg/ml Chymotrypsin (Chymotrypsin; compound 1 mM) | EC50 (Chymotrypsin) [µM] | Slope of the initial increase in fluorescence obtained during incubation with 0.001 mg/ml Trypsin (Trypsin; compound 1 mM) | EC50 (Trypsin) [µM]
N-dodecanoyl-Met-Ala-Pro-Tyr-OH (Lauroyl-MAPY-OH; SMILES CCCCCCCCCCCC(=O)N[C@@H](CCSC)C(=O)N[C@@H](C)C(=O)N1CCC[C@H]1C(=O)N[C@@H](Cc1ccc(O)cc1)C(=O)O) [Example 47] | 0.48 | 1.77 | 7.09 | – | – | – | –
N-dodecanoyl-Ala-Ala-Arg-Tyr-OH (Lauroyl-AARY-OH; SMILES CCCCCCCCCCCC(=O)N[C@@H](C)C(=O)N[C@@H](C)C(=O)N[C@@H](CCCNC(=N)N)C(=O)N[C@@H](Cc1ccc(O)cc1)C(=O)O) [Example 58] | 0.28 | 1.98 | 4.87 | – | – | – | –
N-dodecanoyl-Ala-Ala-Thr-Tyr-OH (Lauroyl-AATY-OH; SMILES CCCCCCCCCCCC(=O)N[C@@H](C)C(=O)N[C@@H](C)C(=O)N[C@H](C(=O)N[C@@H](Cc1ccc(O)cc1)C(=O)O)[C@@H](C)O) [Example 71] | 0.91 | 1.76 | 5.61 | – | – | – | –
N-dodecanoyl-Ala-Thr-Pro-Tyr-OH (Lauroyl-ATPY-OH; SMILES CCCCCCCCCCCC(=O)N[C@@H](C)C(=O)N[C@H](C(=O)N1CCC[C@H]1C(=O)N[C@@H](Cc1ccc(O)cc1)C(=O)O)[C@@H](C)O) [Example 87] | 0.48 | 1.91 | 5.76 | – | – | – | –
N-tetradecanoyl-Ala-Ala-Pro-DPhe-OH [Example 5] | – | – | 9.74 | 0.09 | 105 | 0.35 | –
N-dodecanoyl-βAla-Ala-Pro-Phe-OH [Example 8] | – | – | 6.13 | 0.03 | – | 0.70 | –
N-dodecanoyl-Thr-Pro-Tyr-OH [Example 108] | 0.59 | 1.92 | 5.72 | – | – | – | –
N-dodecanoyl-Asn-Pro-Tyr-OH [Example 114] | 2.01 | 1.99 | 5.07 | – | – | – | –
N-dodecanoyl-Ala-Ala-Val-Tyr-OH (Lauroyl-AAVY-OH; SMILES CCCCCCCCCCCC(=O)N[C@@H](C)C(=O)N[C@@H](C)C(=O)N[C@H](C(=O)N[C@@H](Cc1ccc(O)cc1)C(=O)O)C(C)C) [Example 72] | 1.18 | 1.52 | 6.44 | – | – | – | –
N-dodecanoyl-Ala-Ala-Pro-Leu-OH (Lauroyl-AAPL-OH; SMILES CCCCCCCCCCCC(=O)N[C@@H](C)C(=O)N[C@@H](C)C(=O)N1CCC[C@H]1C(=O)N[C@@H](CC(C)C)C(=O)O) [Example 11] | – | – | 1.22 | 0.77 | – | 3.06 | –
N-dodecanoyl-Glu-Ala-Pro-Tyr-OH (Lauroyl-EAPY-OH; SMILES CCCCCCCCCCCC(=O)N[C@@H](CCC(=O)O)C(=O)N[C@@H](C)C(=O)N1CCC[C@H]1C(=O)N[C@@H](Cc1ccc(O)cc1)C(=O)O) [Example 105] | 1.31 | 1.56 | 3.91 | – | – | – | –
N-dodecanoyl-Tyr-Pro-Tyr-OH [Example 110] | 0.35 | 1.77 | 6.24 | – | – | – | –
N-dodecanoyl-Ser-Ala-Ala-Pro-Tyr-OH [Example 50] | 0.09 | 1.48 | 5.16 | – | – | – | –
N-dodecanoyl-Ala-Asn-Pro-Tyr-OH (Lauroyl-ANPY-OH; SMILES CCCCCCCCCCCC(=O)N[C@@H](C)C(=O)N[C@@H](CC(N)=O)C(=O)N1CCC[C@H]1C(=O)N[C@@H](Cc1ccc(O)cc1)C(=O)O) [Example 74] | 1.66 | 2.27 | 5.27 | – | – | – | –
N-dodecanoyl-Ala-Ala-Ser-Tyr-OH (Lauroyl-AASY-OH; SMILES CCCCCCCCCCCC(=O)N[C@@H](C)C(=O)N[C@@H](C)C(=O)N[C@@H](CO)C(=O)N[C@@H](Cc1ccc(O)cc1)C(=O)O) [Example 70] | 1.50 | 1.45 | 5.43 | – | – | – | –
N-hexadecanoyl-γGlu-OEG-Ala-Ala-Pro-Phe-OH [Example 134] | – | – | 7 | – | 48 | – | 46
N-dodecanoyl-Ala-Asp-Pro-Tyr-OH (Lauroyl-ADPY-OH; SMILES CCCCCCCCCCCC(=O)N[C@@H](C)C(=O)N[C@@H](CC(=O)O)C(=O)N1CCC[C@H]1C(=O)N[C@@H](Cc1ccc(O)cc1)C(=O)O) [Example 75] | 1.77 | 1.81 | 4.2 | – | – | – | –
N-dodecanoyl-Arg-Ala-Pro-Tyr-OH (Lauroyl-RAPY-OH; SMILES CCCCCCCCCCCC(=O)N[C@@H](CCCNC(=N)N)C(=O)N[C@@H](C)C(=O)N1CCC[C@H]1C(=O)N[C@@H](Cc1ccc(O)cc1)C(=O)O) [Example 92] | 0.23 | 1.44 | 4.84 | – | – | – | –
N-dodecanoyl-OEG-OEG-DPhe-OH [Example 129] | – | – | 6.34 | 0.16 | 341 | 0.38 | 391
N-dodecanoyl-His-Pro-Tyr-OH [Example 119] | 0.70 | 2.13 | 5.12 | – | – | – | –
N-dodecanoyl-Ala-Phe-Pro-Tyr-OH (Lauroyl-AFPY-OH; SMILES CCCCCCCCCCCC(=O)N[C@@H](C)C(=O)N[C@@H](Cc1ccccc1)C(=O)N1CCC[C@H]1C(=O)N[C@@H](Cc1ccc(O)cc1)C(=O)O) [Example 84] | 0.14 | 1.43 | 7.77 | – | – | – | –
N-tetradecandioyl-Ala-Ala-Pro-Phe-OH ({C14 diacid}-AAPF-OH) [Example 16] | – | – | 3.11 | 0.14 | – | 3.23 | –
N-dodecanoyl-Ala-Ala-Ala-Pro-Tyr-OH [Example 56] | 0.59 | 1.92 | 5.74 | – | – | – | –
N-dodecanoyl-Leu-Ala-Ala-Pro-Tyr-OH [Example 42] | 0.00 | 0.89 | 7.87 | – | – | – | –
N-dodecanoyl-Arg-Ala-Ala-Pro-Tyr-OH [Example 91] | 0.00 | 1.06 | 4.63 | – | – | – | –
N-dodecanoyl-Ala-Ile-Pro-Tyr-OH (Lauroyl-AIPY-OH; SMILES CCCCCCCCCCCC(=O)N[C@@H](C)C(=O)N[C@H](C(=O)N1CCC[C@H]1C(=O)N[C@@H](Cc1ccc(O)cc1)C(=O)O)[C@@H](C)CC) [Example 80] | 0.10 | 1.83 | 7.24 | – | – | – | –

— patent US20150038435A1, “N-TERMINALLY MODIFIED OLIGOPEPTIDES AND USES THEREOF” (Novo Nordisk A/S, priority 2012, published 2015)
